ChEMBL document CHEMBL1909046, “DrugMatrix in vitro pharmacology data”

Tests used:
[1] = target: Sigma non-opioid intracellular receptor 1 (Homo sapiens, UniProt Q99720); assay: DRUGMATRIX: Sigma1 radioligand binding (ligand: [3H] Haloperidol); assay type: cell membranes, Jurkat, Membrane; conditions: jurkat; Not Active = under 50% inhibition at 10 µM
[2] = DRUGMATRIX: Calcium Channel Type L, Dihydropyridine radioligand binding (ligand: [3H] Nitrendipine); assay type: cell membranes, Rattus norvegicus, Wistar, Cerebral cortex, Membrane; conditions: Not Active = under 50% inhibition at 10 µM
Cytochrome P450 2D6 = Cytochrome P450 2D6 (Homo sapiens, UniProt P10635); conditions: bti-tn-5b1-4; further: in other assays of this panel Not Active means under 50% inhibition at 10 µM
[3] = target: Matrix metalloproteinase-9 (Homo sapiens, UniProt P14780); assay type: cell-based;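 further: inhibition of isolated MMP-9 enzyme activity toward a synthetic peptide substrate, from the DrugMatrix protease screening panel; in other assays of this panel Not Active means under 50% inhibition at 10 µM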
[4] = DRUGMATRIX: Tumor Necrosis Factor (TNF), Non-Selective radioligand binding (ligand: [125I] TNF-alpha); assay type: cell membranes, Membrane; conditions: u-937; Not Active = under 50% inhibition at 10 µM
Calcitonin receptor = target: T1, Calcitonin receptor (Homo sapiens, UniProt P30988); assay type: cell membranes, Membrane; conditions: t47d; further: in other assays of this panel Not Active means under 50% inhibition at 10 µM
T1 sequence (P30988 whole entry): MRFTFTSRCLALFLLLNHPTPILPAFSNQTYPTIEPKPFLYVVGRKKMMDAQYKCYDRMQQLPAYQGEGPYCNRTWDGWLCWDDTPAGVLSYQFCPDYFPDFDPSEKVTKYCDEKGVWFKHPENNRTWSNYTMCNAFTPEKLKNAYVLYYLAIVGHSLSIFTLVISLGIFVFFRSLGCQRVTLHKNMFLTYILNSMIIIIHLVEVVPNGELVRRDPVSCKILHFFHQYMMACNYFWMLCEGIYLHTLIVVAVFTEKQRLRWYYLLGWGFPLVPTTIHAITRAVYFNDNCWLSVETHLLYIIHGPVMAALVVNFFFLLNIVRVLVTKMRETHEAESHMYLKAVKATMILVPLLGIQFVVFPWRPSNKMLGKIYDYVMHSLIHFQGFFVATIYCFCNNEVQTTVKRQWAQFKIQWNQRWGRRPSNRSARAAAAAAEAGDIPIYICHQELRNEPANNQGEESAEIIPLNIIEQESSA

Cytochrome P450 2C9 = Cytochrome P450 2C9 (Homo sapiens, UniProt P11712); conditions: bti-tn-5b1-4; further: in other assays of this panel Not Active means under 50% inhibition at 10 µM
[5] = DRUGMATRIX: Phorbol Ester radioligand binding (ligand: [3H] PDBu); assay type: cell membranes, Mus musculus, ICR, Brain, Membrane; conditions: Not Active = under 50% inhibition at 10 µM
Adenosine receptor A3 = target: T2, Adenosine receptor A3 (Homo sapiens, UniProt P0DMS8); assay type: cell membranes, CHO-K1, Membrane
T2 sequence (P0DMS8 whole entry): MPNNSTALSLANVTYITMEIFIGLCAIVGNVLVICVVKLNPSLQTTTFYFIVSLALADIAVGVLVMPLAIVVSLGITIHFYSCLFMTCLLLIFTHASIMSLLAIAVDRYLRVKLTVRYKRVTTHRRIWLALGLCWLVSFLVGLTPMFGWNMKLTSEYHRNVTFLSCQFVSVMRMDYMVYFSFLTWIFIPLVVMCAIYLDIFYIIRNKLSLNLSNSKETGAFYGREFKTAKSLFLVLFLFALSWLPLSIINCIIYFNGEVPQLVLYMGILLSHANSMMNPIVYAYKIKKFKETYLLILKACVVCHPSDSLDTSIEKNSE

[6] = DRUGMATRIX: GABAA, Muscimol, Central radioligand binding (ligand: [3H] Muscimol); assay type: cell membranes, Rattus norvegicus, Wistar, Brain, Membrane; conditions: Not Active = under 50% inhibition at 10 µM
[7] = target: T3, Alpha-1B adrenergic receptor (Rattus norvegicus, UniProt P15823); assay: DRUGMATRIX: Alpha-1B adrenergic receptor radioligand binding (ligand: prazosin); assay type: cell membranes, Wistar, Liver, Membrane; conditions: Not Active = under 50% inhibition at 10 µM
T3 sequence (P15823 whole entry): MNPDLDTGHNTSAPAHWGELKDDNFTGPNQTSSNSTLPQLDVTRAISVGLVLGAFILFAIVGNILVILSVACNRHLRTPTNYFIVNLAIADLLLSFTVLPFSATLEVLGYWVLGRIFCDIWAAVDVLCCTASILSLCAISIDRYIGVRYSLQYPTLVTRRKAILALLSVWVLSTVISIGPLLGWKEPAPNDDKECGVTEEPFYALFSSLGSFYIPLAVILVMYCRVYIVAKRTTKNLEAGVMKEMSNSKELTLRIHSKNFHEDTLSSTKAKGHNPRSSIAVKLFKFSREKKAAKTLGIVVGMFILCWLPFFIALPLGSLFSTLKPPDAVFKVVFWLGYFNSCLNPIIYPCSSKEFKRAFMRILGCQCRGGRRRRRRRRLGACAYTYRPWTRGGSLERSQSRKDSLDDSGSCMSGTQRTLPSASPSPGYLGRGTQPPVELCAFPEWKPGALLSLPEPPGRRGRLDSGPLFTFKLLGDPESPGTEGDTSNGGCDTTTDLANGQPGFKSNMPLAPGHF

[8] = target: T4, 5-hydroxytryptamine receptor 2C (Homo sapiens, UniProt P28335); assay: DRUGMATRIX: Serotonin (5-Hydroxytryptamine) 5-HT2C radioligand binding (ligand: [3H] Mesulergine); assay type: cell membranes, CHO-K1, Membrane; conditions: Not Active = under 50% inhibition at 10 µM
T4 sequence (P28335 whole entry): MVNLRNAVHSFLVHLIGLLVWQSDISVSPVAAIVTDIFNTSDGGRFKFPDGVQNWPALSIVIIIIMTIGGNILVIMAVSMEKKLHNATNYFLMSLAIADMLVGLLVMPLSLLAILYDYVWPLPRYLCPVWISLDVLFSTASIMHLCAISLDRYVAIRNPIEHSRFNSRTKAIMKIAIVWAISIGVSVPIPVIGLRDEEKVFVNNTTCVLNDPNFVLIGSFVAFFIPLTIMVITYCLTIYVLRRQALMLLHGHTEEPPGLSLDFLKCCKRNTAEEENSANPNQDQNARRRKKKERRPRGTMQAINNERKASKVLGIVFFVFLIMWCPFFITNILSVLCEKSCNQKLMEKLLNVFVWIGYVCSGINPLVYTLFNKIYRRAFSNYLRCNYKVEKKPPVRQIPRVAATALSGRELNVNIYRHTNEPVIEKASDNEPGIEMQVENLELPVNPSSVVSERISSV

[9] = DRUGMATRIX: Calcium Channel Type L, Phenylalkylamine radioligand binding (ligand: [3H] (-)-Desmethoxyverapamil (D-888)); assay type: cell membranes, Rattus norvegicus, Wistar, Brain, Membrane; conditions: Not Active = under 50% inhibition at 10 µM
[10] = DRUGMATRIX: ATPase, Na+/K+ enzyme inhibition (substrate: ATP); assay type: tissue-based, Sus scrofa, Heart; conditions: Not Active = under 50% inhibition at 10 µM

Chain of Cytochrome P450 2C9 (P11712 whole entry): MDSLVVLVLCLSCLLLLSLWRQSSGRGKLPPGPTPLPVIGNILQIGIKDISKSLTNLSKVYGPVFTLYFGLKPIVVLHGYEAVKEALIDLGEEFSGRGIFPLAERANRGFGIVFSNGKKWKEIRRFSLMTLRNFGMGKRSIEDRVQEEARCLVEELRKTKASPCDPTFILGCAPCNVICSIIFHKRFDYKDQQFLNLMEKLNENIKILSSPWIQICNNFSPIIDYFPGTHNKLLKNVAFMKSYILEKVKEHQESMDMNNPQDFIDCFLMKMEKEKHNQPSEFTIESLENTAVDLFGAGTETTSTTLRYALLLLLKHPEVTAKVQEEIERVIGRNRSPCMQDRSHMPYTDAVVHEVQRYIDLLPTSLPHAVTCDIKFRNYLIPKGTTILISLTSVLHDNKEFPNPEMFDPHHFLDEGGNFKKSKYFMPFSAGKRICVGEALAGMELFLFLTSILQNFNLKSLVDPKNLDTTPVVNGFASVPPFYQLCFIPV
Chain of Matrix metalloproteinase-9 (P14780 whole entry): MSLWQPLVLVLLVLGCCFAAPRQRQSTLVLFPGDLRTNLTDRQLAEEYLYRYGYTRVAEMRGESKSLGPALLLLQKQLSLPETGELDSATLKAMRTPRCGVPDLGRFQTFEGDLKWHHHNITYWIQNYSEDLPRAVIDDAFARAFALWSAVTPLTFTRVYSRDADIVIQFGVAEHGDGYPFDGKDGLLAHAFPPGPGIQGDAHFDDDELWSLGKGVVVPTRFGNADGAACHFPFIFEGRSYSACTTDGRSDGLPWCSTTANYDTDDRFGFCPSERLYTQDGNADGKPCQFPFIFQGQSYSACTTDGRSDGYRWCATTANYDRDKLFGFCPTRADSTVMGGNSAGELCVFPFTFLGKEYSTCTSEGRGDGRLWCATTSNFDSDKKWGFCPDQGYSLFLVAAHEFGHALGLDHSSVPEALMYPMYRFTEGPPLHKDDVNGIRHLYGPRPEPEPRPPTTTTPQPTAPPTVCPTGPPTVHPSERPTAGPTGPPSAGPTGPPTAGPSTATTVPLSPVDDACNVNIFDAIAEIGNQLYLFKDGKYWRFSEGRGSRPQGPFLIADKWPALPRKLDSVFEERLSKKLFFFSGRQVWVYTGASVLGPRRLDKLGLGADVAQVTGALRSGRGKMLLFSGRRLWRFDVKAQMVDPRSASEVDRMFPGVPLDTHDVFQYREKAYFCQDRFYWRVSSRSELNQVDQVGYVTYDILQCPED
Chain of Sigma non-opioid intracellular receptor 1 (Q99720 whole entry): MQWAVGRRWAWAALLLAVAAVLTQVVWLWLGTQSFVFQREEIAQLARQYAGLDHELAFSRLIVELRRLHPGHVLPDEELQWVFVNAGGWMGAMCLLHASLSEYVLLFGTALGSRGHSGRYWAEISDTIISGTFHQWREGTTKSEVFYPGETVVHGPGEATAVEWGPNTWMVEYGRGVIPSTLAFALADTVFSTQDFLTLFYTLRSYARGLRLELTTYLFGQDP
Chain of Cytochrome P450 2D6 (P10635 whole entry): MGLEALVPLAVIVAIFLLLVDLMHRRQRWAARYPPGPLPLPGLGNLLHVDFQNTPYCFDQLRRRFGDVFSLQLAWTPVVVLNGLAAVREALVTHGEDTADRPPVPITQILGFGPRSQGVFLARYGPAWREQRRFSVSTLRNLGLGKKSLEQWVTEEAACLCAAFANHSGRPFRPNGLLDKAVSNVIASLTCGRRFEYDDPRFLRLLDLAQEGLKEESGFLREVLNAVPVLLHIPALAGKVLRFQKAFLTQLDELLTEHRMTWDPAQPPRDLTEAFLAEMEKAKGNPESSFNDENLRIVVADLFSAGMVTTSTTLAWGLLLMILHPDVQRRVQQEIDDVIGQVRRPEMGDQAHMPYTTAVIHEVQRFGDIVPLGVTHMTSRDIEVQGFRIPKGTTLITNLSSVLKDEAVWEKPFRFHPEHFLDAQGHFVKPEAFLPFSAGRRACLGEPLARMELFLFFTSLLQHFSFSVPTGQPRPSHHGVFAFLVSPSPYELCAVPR

## CC=CC(=O)N(CC)c1ccccc1C
[1]
  IC50: Not Active
[2]
  IC50: Not Active
  Ki: Not Active
Cytochrome P450 2D6
  IC50: Not Active
  Ki: Not Active
[3]
  IC50: Not Active
[4]
  IC50: Not Active
  Ki: Not Active
Calcitonin receptor
  IC50: Not Active
Cytochrome P450 2C9
  IC50: Not Active
  Ki: Not Active
[5]
  IC50: Not Active
  Ki: Not Active
Adenosine receptor A3; cho-k1
  IC50: Not Active
[6]
  IC50: Not Active
  Ki: Not Active
[7]
  IC50: Not Active
[8]; cho-k1
  IC50: Not Active
[9]
  IC50: Not Active
  Ki: Not Active
[10]
  IC50: Not Active
  Ki: Not Active

## C=C1C(=O)O[C@@H]2C3O[C@]3(C)CC/C=C(\C)CC[C@@H]12 (stereo partly specified)
[1]
  IC50: Not Active
[2]
  IC50: Not Active
  Ki: Not Active
Cytochrome P450 2D6
  IC50: Not Active
  Ki: Not Active
[3]
  IC50: Not Active
[4]
  IC50: Not Active
  Ki: Not Active
Calcitonin receptor
  IC50: Not Active
Cytochrome P450 2C9
  IC50: Not Active
  Ki: Not Active
[5]
  IC50: Not Active
  Ki: Not Active
Adenosine receptor A3; cho-k1
  IC50: Not Active
[6]
  IC50: Not Active
  Ki: Not Active
[7]
  IC50: Not Active
[8]; cho-k1
  IC50: Not Active
[9]
  IC50: Not Active
  Ki: Not Active
[10]
  IC50: Not Active
  Ki: Not Active

## CCCCCCCCCc1ccc(O)cc1 [4-NONYLPHENOL]
[1]
  IC50: Not Active
[2]
  IC50: Not Active
  Ki: Not Active
Cytochrome P450 2D6
  IC50: Not Active
  Ki: Not Active
[3]
  IC50: Not Active
[4]
  IC50: Not Active
  Ki: Not Active
Calcitonin receptor
  IC50: Not Active
Cytochrome P450 2C9
  IC50: Not Active
  Ki: Not Active
[5]
  IC50: Not Active
  Ki: Not Active
Adenosine receptor A3; read-out: IC50
  IC50: 1920 nM
Adenosine receptor A3; read-out: Ki
  Ki: 1080 nM
[6]
  IC50: Not Active
  Ki: Not Active
[7]
  IC50: Not Active
[8]; read-out: IC50
  IC50: 2570 nM
[8]; read-out: Ki
  Ki: 1350 nM
[9]
  IC50: Not Active
  Ki: Not Active
[10]
  IC50: Not Active
  Ki: Not Active

## COc1ccc2c(c1)c(CC(=O)OCC(=O)O)c(C)n2C(=O)c1ccc(Cl)cc1 [ACEMETACIN]
[1]
  IC50: Not Active
[2]
  IC50: Not Active
  Ki: Not Active
Cytochrome P450 2D6
  IC50: Not Active
  Ki: Not Active
[3]
  IC50: Not Active
[4]
  IC50: Not Active
  Ki: Not Active
Calcitonin receptor
  IC50: Not Active
Cytochrome P450 2C9
  IC50: Not Active
  Ki: Not Active
[5]
  IC50: Not Active
  Ki: Not Active
Adenosine receptor A3; cho-k1
  IC50: Not Active
[6]
  IC50: Not Active
  Ki: Not Active
[7]
  IC50: Not Active
[8]; cho-k1
  IC50: Not Active
[9]
  IC50: Not Active
  Ki: Not Active
[10]
  IC50: Not Active
  Ki: Not Active

## CCCSc1ccc2nc(NC(=O)OC)[nH]c2c1 [ALBENDAZOLE]
[1]
  IC50: Not Active
[2]
  IC50: Not Active
  Ki: Not Active
Cytochrome P450 2D6
  IC50: Not Active
  Ki: Not Active
[3]
  IC50: Not Active
[4]
  IC50: Not Active
  Ki: Not Active
Calcitonin receptor
  IC50: Not Active
Cytochrome P450 2C9
  IC50: Not Active
  Ki: Not Active
[5]
  IC50: Not Active
  Ki: Not Active
Adenosine receptor A3; cho-k1
  IC50: Not Active
[6]
  IC50: Not Active
  Ki: Not Active
[7]
  IC50: Not Active
[8]; cho-k1
  IC50: Not Active
[9]
  IC50: Not Active
  Ki: Not Active
[10]
  IC50: Not Active
  Ki: Not Active

## Cc1[nH]cnc1CN1CCc2c(c3ccccc3n2C)C1=O [ALOSETRON]
[1]
  IC50: Not Active
[2]
  IC50: Not Active
  Ki: Not Active
Cytochrome P450 2D6
  IC50: Not Active
  Ki: Not Active
[3]
  IC50: Not Active
[4]
  IC50: Not Active
  Ki: Not Active
Calcitonin receptor
  IC50: Not Active
Cytochrome P450 2C9
  IC50: Not Active
  Ki: Not Active
[5]
  IC50: Not Active
  Ki: Not Active
Adenosine receptor A3; cho-k1
  IC50: Not Active
[6]
  IC50: Not Active
  Ki: Not Active
[7]
  IC50: Not Active
[8]; cho-k1
  IC50: Not Active
[9]
  IC50: Not Active
  Ki: Not Active
[10]
  IC50: Not Active
  Ki: Not Active

## NCC[C@H](O)C(=O)N[C@@H]1C[C@H](N)[C@@H](O[C@H]2O[C@H](CN)[C@@H](O)[C@H](O)[C@H]2O)[C@H](O)[C@H]1O[C@H]1O[C@H](CO)[C@@H](O)[C@H](N)[C@H]1O [AMIKACIN]
[1]
  IC50: Not Active
[2]
  IC50: Not Active
  Ki: Not Active
Cytochrome P450 2D6
  IC50: Not Active
  Ki: Not Active
[3]
  IC50: Not Active
[4]
  IC50: Not Active
  Ki: Not Active
Calcitonin receptor
  IC50: Not Active
Cytochrome P450 2C9
  IC50: Not Active
  Ki: Not Active
[5]
  IC50: Not Active
  Ki: Not Active
Adenosine receptor A3; cho-k1
  IC50: Not Active
[6]
  IC50: Not Active
  Ki: Not Active
[7]
  IC50: Not Active
[8]; cho-k1
  IC50: Not Active
[9]
  IC50: Not Active
  Ki: Not Active
[10]
  IC50: Not Active
  Ki: Not Active
